Reference: patent publication US20240279710A1, “FLUORESCENT PROBES” (TOHOKU TECHNO ARCH CO., LTD., priority 2021, published 2024)

Key:
[1] = test system: calpain; assay: Rabbit NMDA injury model, ocular fundus imaging; type: in vivo; settings: for staining of nerve cells with HMRG in ocular fundus: 30, 45 and 60 minutes after probe into the eye (Compound 19 18.3 μM 19 μL; Compound 16 20 μM 19 μl or 38 μl)
Experimental: Black Dutch rabbits were each subjected to general anesthesia with a mixed liquid of ketamine and xylazine. N-Methyl-D-aspartate (NMDA) (12 mM, 50 μL) or PBS was administered into an eye of the rabbit. 9 Hours after that, the rabbit was anesthetized with a mixed liquid of ketamine and xylazine again, and Compound 19 (18.3 μM, 19 μL), Compound 16 (20 μM, 19 μl), or Compound 16 (20 μM, 38 μl) was administered into the eye. Images of an ocular fundus were taken with Mirante (a confocal scanning diode laser ophthalmoscope manufactured by Nidek Co., Ltd.) before the administration of each of the compounds and after the lapse of a predetermined time from the administration.

[2] = test system: retinal ganglion cells; assay: Glutamic acid injury of retinal ganglion cells isolated from iPS cell-derived retinal tissue; type: cell-based, human; settings: glutamic acid 300 μM, probe 5 μM added 1 hour later, imaged 1 hour thereafter; FIG. 24
Experimental: A glutamic acid injury model that activated a calpain to induce a retinal ganglion cell injury was produced from the iPS cell-derived three-dimensional stereoscopic retinal tissue, and calpain activity with Compound 19 was evaluated by using the model. First, to identify a retinal ganglion cell injury caused by a glutamic acid injury, retinal ganglion cells were isolated from the iPS cell-derived three-dimensional stereoscopic retinal tissue with auto MACS pro (trademark) and CD90 MicroBeads. Glutamic acid (final concentration: 300 μM) was added to the cells to be caused to react therewith for 1 hour. Compound 19 (final concentration: 5 μM) was added thereto 1 hour after the addition of glutamic acid, and images of the state and fluorescence of the cells were taken (RGB and B/W modes) with a fluorescence microscope (ZEISS Axio Vert.A1) 1 hour thereafter.

[3] = molecular target: T1, recombinant human cathepsin B (Homo sapiens, UniProt P07858); assay: Fluorescence assay with cathepsin B; type: biochemical; settings: 10 μM probe, 880 ng/mL cathepsin B, 50 mM TRIS pH 7.4, 37° C., excitation 475 nm, fluorescence 500-550 nm; FIG. 37
T1 construct: purchased R&D Systems 953-CY
Experimental: The fluorescence assay of Compound 19 with time was performed. Specifically, 880 ng/mL of recombinant human cathepsin B (953-CY; R&D Systems, MN, USA) was added to a 50 mM TRIS buffer (pH: 7.4, 2 mM EGTA, 2 mM DTE) containing 10 μM of the synthesized fluorescent probe to perform an enzyme reaction at 37° C. The same operations as those described above except that cathepsin B was not added were performed as a negative control. The results of the measurement of a change in fluorescence intensity with time by cathepsin B are shown in FIG. 37 (excitation wavelength: 475 nm, fluorescence wavelength: from 500 nm to 550 nm).

[4] = rabbits administered NMDA, Compound 19 18.3 μM 19 μL, FIG. 23

**Q.** How did the “number of HMRG-positive cells in PBS rabbits compared to NMDA rabbits” value ([1]; Compound 19 (19 μL) and Compound 16 (38 μl), FIG. 23) turn out when `COCC(=O)N[C@@H](CC(C)C)C(=O)N[C@@H](CCSC)C(=O)Nc1ccc2c(c1)Oc1cc(N)ccc1C21OCc2ccccc21` (some centres unmarked) [Compound 19] was run?
**A.** significantly reduced

**Q.** What about the “reactivity in relation to dose, compared with Compound 16” value ([1]; rabbit NMDA injury model, administration into the eye) of the same molecule?
**A.** satisfactory reactivity even when used in a dose smaller than that of Compound 16

**Q.** What about the “staining of nerve cells with HMRG in ocular fundus” value ([1]; rabbits administered NMDA (12 mM, 50 μL)) of the same molecule?
**A.** many nerve cells were clearly stained with HMRG

**Q.** What about the “number of HMRG-positive cells compared to Compound 16 (19 μl)” value [1, 4] of the same molecule?
**A.** significantly increased

**Q.** What about the “number of HMRG-positive cells compared to Compound 16 (38 μl)” value [1, 4] of the same molecule?
**A.** tended to increase

**Q.** What about the “staining of nerve cells with HMRG in ocular fundus” value ([1]; rabbits administered PBS) of the same molecule?
**A.** substantially no staining of the nerve cells with HMRG

**Q.** And the “fluorescence of isolated retinal ganglion cells” value [2]?
**A.** enhancement of the fluorescence

**Q.** What about the “change in fluorescence intensity with time by cathepsin B” value [3] of the same molecule?
**A.** functioned as a fluorescent probe for cathepsin B
